This is an account of results in patent EP0670826B1, “FATTY ACID DERIVATIVES AND PHARMACEUTICAL COMPOSITIONS CONTAINING THEM” (YISSUM RESEARCH DEVELOPMENT COMPANY OF THE HEBREW …, priority 1992, dated 1994).

Broadly, the inhibition is the share of the control response that was lost under treatment. By Ki is commonly meant the equilibrium dissociation constant of an inhibitor or competing ligand from its target. Low values mean higher affinity, high ones lower affinity.

The subject of assay [1] is Arachidonic Acid-Induced Paw Edema. As to the kind of experiment: arachidonic acid-induced paw edema. It is filed as in vivo. As to conditions: Mus musculus, po, compared to vehicle treated controls (peanut oil orally), N=5 mice/group, read-out: percent inhibition of paw edema; for inhibition at 0.05 mg/kg: dose 0.050 mg/kg; for inhibition at 0.1 mg/kg: dose 0.100 mg/kg; for inhibition at 0.25 mg/kg: dose 0.250 mg/kg. On the procedure:
The compounds were tested by a method reported by W. Calhoun et al., Agents and Actions, 21, 306-a309 (1987). Water was substituted for mercury as the displacement medium. PAF (1.0 µg) or arachidonic acid (1.0mg) dissolved in 50 µl of 5% ethanol in saline was injected s.c. into the plantar surface of the right hind paw of female mice (20-25g). The mice were under ether anesthesia during this procedure. The volume of the right foot was measured to the level of the lateral malleous by water displacement before treatment and 15 min after PAF injection or 30 min after arachidonic injection. The change in paw volume was calculated for each mouse.

In assay [2] the test system is emesia caused by an antieoplastic drug (cisplatin). The experiment in a line: antiemetic activity against cisplatin-caused emesis. It is filed as in vivo. The settings on record: Columbidae, sc, in pigeons, administered subcutaneously, read-out: Reduction of vomiting(50%). How it is done: The compounds also tested in pigeons against emesia caused by an antieoplastic drug (cisplatin) according to the method described in Feigenbaum et al., Eur. J. Pharmacol. 169, 159-165 (1989). Representative results are presented in Table I. The compounds were dissolved as described above for the tests on analgesia, and administered subcutaneously. The injection volume was 1.0 ml/kg body weight.

The subject of assay [3] is mice. The experiment in a line: standard hot plate test (analgesia). In kind it is in vivo. The settings on record: Mus musculus; in mice, intravenous injection in the tail vein; read-out: Analgesia ED=50. On the procedure: Analgesia. The novel compounds were tested in the standard hot plate test.
Represenatative results are presented in Table I. The compounds were dissolved in a detergent (Emulphor): ethanol: saline (5:5:90) and administered by intravenous injection in the tail vein with an injection volume of 0.1 ml/10g of body weight.
For orientation: Thermal pain tests record how soon the animal reacts.

For assay [4], the system named is mouse vas deferens. As to the kind of experiment: electrically-evoked twitch response of the mouse vas deferens. How it is done:
R.G. Pertwee, L.A. Stevenson, D.B. Elrick, R. Mechoulam, A.D. Corbett, Brit. J. Pharmacol. 105, 980 (1992). […] The structure of anandamide was established by mass spectrometry (MS) and nuclear magnetic resonance (NMR) spectroscopy. Additional data were obtained from the GC-MS and CID measurements of the trimethylsilyl (TMS) derivative of the material.
Fig. 2. Inhibition of vas deferens twitch response by natural anandamide. Vasa deferentia obtained from MFI mice were mounted in 4 ml siliconized organ baths under an initial tension of 0.5 g. The baths contained Mg++ -Free Krebs solution which was kept at 37 C and bubbled with 95% 02 and 5% CO2 . Tissues were stimulated supramaximally with 0.5 s trains of 3 pulses (train frequency 0.1 Hz: pulse duration 0.5 ms). Isometric contractions were recorded. Natural anandamide was dispersed in Tween 80 and saline (see ref. 12) and added in volumes of 40 µl.

In assay [5] the target is T1, cannabinoid receptor (Rattus norvegicus, UniProt P20272).
T1 construct: Synaptosomal membranes were prepared from rat whole brain-minus brainstem; from tissue; host or cells: rat whole brain minus brainstem, synaptosomal membranes (Sprague-Dawley males)
T1 sequence (P20272 whole entry): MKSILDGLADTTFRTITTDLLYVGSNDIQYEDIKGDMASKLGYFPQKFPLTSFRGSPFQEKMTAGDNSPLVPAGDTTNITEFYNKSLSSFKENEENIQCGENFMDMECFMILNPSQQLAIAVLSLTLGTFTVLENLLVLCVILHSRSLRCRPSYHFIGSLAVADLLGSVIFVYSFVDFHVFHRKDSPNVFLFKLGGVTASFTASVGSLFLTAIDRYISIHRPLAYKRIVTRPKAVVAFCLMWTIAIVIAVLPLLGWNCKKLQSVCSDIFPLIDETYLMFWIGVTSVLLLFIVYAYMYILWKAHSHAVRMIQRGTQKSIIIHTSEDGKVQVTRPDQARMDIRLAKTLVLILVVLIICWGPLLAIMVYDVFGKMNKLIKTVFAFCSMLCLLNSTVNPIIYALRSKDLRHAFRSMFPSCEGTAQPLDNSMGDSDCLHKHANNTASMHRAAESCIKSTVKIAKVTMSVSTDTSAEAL
The experiment in a line: centrifugation radioligand binding assay with [3H]HU-243 on synaptosomal membranes.
Method: To screen for endogenous cannabinoid compounds there were tested brain-derived fractions using a centrifugation radioligand binding assay. […] Particular attention was paid to the binding of [^3H]HU-243 to the siliconized polypropylene microfuge tubes in which the assay was conducted. Normally, about 15-20% of the added [^3H]HU-243 adheres to the microfuge tube, with the amount increasing slightly when unlabelled cannabinoid drugs displace the radioligand from the receptor.
Synaptosomal membranes were prepared from rat whole brain-minus brainstem (Sprague-Dawley males, 430-470g). [^3H]HU-243 (45-55 pM) was incubated with synaptosomal membranes (protein content 3-4 µg) for 90 min at 30°C with either the indicated concentrations of anandamide or the vehicle alone (fatty acid-free bovine serum albumin, final concentration-0.5 mg/ml). Bound and free radioligand were separated by centrifugation (see ref. 8 for full details of the assay). The data were normalized to 100% of specific binding, which was determined with 50 nM unlabeled HU-243. The amount of specific binding was 77-82% of the total radioactivity bound to the membranes. Data points (□, ▲) represent the average of triplicate determinations from two independent experiments.

The test system of assay [6] is intraocular pressure (I.O.P.). As to the kind of experiment: antiglaucoma activity in stable glaucoma induced by chymotrypsin injection into the eye. As to conditions: 0.01% aq. solution, rabbits. In kind it is in vivo. How it is done:
The compounds were also tested for antiglaucoma activity in rabbits with stable glaucoma induced by δ-chymotrypsin injection into the eye as described in detail in R. Mechoulam et al., On the therapeutic possiblities of some cannabinoids in "The Therapeutic Potential of Marihuana" (eds S. Cohen. R.C. Stillman) Plenum Press, New York, 1975. pp. 35-48). The compounds were compared in activity to that of pilocarpine (a standard antiglaucoma drug) which at 0.01% aq. solution reduces the intraocular pressure (I.O.P.) and delays recovery to half time of the original I.O.P. about 30 hours. […] The compounds were dissolved as described for analgesia and further diluted with saline to obtain the required concentration.

With `CC/C=C\C/C=C\C/C=C\C/C=C\C/C=C\C/C=C\CCC(=O)NCCO` [4,7,10,13,16,19-docosahexaenylethanolamide], in assay [1], the inhibition at 0.05 mg/kg was 52.4%, the inhibition at 0.1 mg/kg stood at 66.8% and the inhibition at 0.25 mg/kg was determined as 72%. Also, the ED50 in assay [2] stood at 4.8 mg/kg. For the same compound, the ED50 in assay [3] came to 6.1 mg/kg.

Regarding `CCCCC/C=C\C/C=C\C/C=C\C/C=C\CCCC(=O)NCCO` [Arachidonylethanolamide, 5,8,11,14-icosatetraenamide, (N,-2-hydroxyethyl)-(all-Z)], in assay [1] (dose 0.010 mg/kg), the inhibition at 0.01 mg/kg was determined as 56.2%. Also, the inhibition at 0.025 mg/kg in assay [1] (dose 0.025 mg/kg) is 58.4%. For the same compound, in assay [1], the inhibition at 0.05 mg/kg was 74.2%, the inhibition at 0.1 mg/kg stood at 98% and the inhibition at 0.25 mg/kg was found to be 100%. In assay [2], the ED50 was determined as 2.5 mg/kg. The ED50 in assay [3] amounted to 4.2 mg/kg. Moreover, the “inhibition of the twitch response” value in assay [4] (electrically-evoked, mouse vas deferens) was “concentration-dependent inhibition”. Further, the “reversal of the inhibition of the twitch response by naloxone” value in assay [4] (naloxone 300 nM) is recorded as “not reversed”.

On to `CCCCC/C=C\C/C=C\C/C=C\C/C=C\CCCC(=O)NCC(C)(C)O` [arachidonoyl-β-dimethylethanolamide], for which the Ki in assay [5] (synthetic compounds, prepared and tested) is 0.162 ± 0.0341 µM.

In assay [5] (compounds isolated from the brain and synthesized), `CCCCC/C=C\C/C=C\C/C=C\C/C=C\CCCCCC(=O)NCCO` [cis-7,10,13,16-docosatetraenoylethanolamide] came in with a Ki of 0.0344 ± 0.0032 µM.

`CC[C@@H]1C(=O)OC[C@@H]1Cc1cncn1C` [pilocarpine]: the “delays recovery to half time of the original I.O.P.” value in assay [6] is “about 30 hours”.
